According to patent US20100028366A1, “SYNERGISTIC EFFECT BETWEEN A […] AND ANOTHER OXIDATIVE INDUCING SYSTEM FOR TREATING TUMORS” (priority 2005, published 2010):

Assays:
[1] = test system: GB-LP-1 cells; experiment: Survival by MTT of GB-LP-1 explant cells infected with adenolis; assay type: cell-based, human; conditions: 500 μg/ml linamarin; even at MOI: 1
Description: The behavior of the lis/lin therapy in one of the explants (GB-LP-1) was additionally analyzed. These cells were infected with adenolis (MOI: 0, 1, 12, 100 and 500) and the survival and production of cyanide after the addition of 500 μg/ml linamarin (FIGS. 6G and 6H, respectively) were studied.
10^5 cells (W&W and patient explants) were seeded in test tubes with a flat side and screw-on cap (Nunc), or 5×10^4 cells were seeded on cover slips in 24-well plates and were simultaneously infected with adenolis (Crucell) at different multiplicities of infection (MOI: 0; 0.2; 1; 10; 100 or 500). For the cells seeded in test tubes, the medium was changed after 24 hours adding 0.5 mg/ml of linamarin where appropriate. A cell viability assay was conducted with MTT at 96 hours after the addition of linamarin. 48 hours after infection the cells seeded in the cover slips were processed to perform immunofluorescence to detect linamarase.

[2] = test system: W&Wlis cells; experiment: Structural modifications of the mitochondrion (pDsRed2-mito, confocal microscopy); assay type: cell-based, canine; conditions: linamarin 500 μg/ml from 48 hours; glucose oxidase 5 mEU/ml; combination after 24 hours
Description: For the purpose of studying the mitochondrial dynamics occurring as a result of the oxidative stress caused by the activity of the claimed system, W&Wlis cells were stably transfected with the plasmid pdsRed2-mito (Clontech) containing the gene of the one red fluorescent protein carried by a transport signal peptide to the mitochondrion. This allowed viewing the mitochondria of cells treated with linamarin and glucose oxidase by fluorescence microscopy. […] This effect starts to be observed 48 hours after treatment with linamarin (FIG. 1B) and becomes more pronounced after 72 hours, a slight swelling of the fragments (FIG. 1C) being observed.
To study the structural modifications of the mitochondrion during therapy, the W&W and W&Wlis cells were transfected with the plasmid pDsRed2-mito (Clontech, BD Bioscience) containing the gene of a red fluorescent protein which is expressed exclusively in mitochondria. The transfection was performed similarly to the previous section and clones were selected by resistance to neomycin (0.75 and 1.5 mg/ml respectively). The cells from stable expression clones of the protein were seeded in multiwell plates on cover slips (2.5×10^4) and were treated with linamarin (50, 200 or 500 μg/ml) and glucose oxidase (5 mEU/ml). After the suitable incubation time for each experiment (24, 48 or 72 hours) elapsed, the cells were fixed with 4% paraformaldehyde. […]

In the case of CC(C)(C#N)O[C@@H]1O[C@H](CO)[C@@H](O)[C@H](O)[C@H]1O [lin, 2-hydroxy-isobutyronitrile-β-D-glucopyranoside], the “sensitivity of adenolis-infected cells to linamarin (survival)” value [1] was “very sensitive to treatment with linamarin” and the mitochondrial pattern [2] was “dotted pattern”.
